In ChEMBL document CHEMBL6083262, “Stereorandomized Oncocins with Preserved Ribosome Binding and Antibacterial Activity” (J Med Chem, 2024):
Values after ≈ are worked out from the molar mass of the structure shown. Active and inactive are the calls of the source. The calls are words filed in the database; no cut-off is given here. Non-standard residues stand in square brackets, D forms with d. Residues, ends and D or L forms follow the SMILES beside them. ξ: configuration not given here. ξY = NC(Cc1ccc(O)cc1)C(=O)O; ξR = N=C(N)NCCCC(N)C(=O)O; ξN = NC(=O)CC(N)C(=O)O; Nleu = CC(C)CNCC(=O)O; ξI = CCC(C)C(N)C(=O)O; Nlys = NCCCCNCC(=O)O; ξP = O=C(O)C1CCCN1

How the values were obtained:
Klebsiella pneumoniae [1] = test: Antimicrobial activity against Klebsiella pneumoniae NCTC 418 incubated for 16 to 20 hrs in full muller hinton medium by broth microdilution method; format: functional; details: time 16-20 hrs
Acinetobacter baumannii = test: Antimicrobial activity against Acinetobacter baumannii ATCC 19606 incubated for 16 to 20 hrs in full muller hinton medium by broth microdilution method; format: functional; details: time 16-20 hrs
Staphylococcus aureus [2] = test: Antimicrobial activity against methicillin-resistant Staphylococcus aureus COL incubated for 16 to 20 hrs in full muller hinton medium by broth microdilution method; format: functional; details: time 16-20 hrs
Escherichia coli [3] = test: Antimicrobial activity against Escherichia coli W3110 incubated for 16 to 20 hrs in 12.5 % muller hinton medium by broth microdilution method; format: functional; details: time 16-20 hrs
Klebsiella pneumoniae [4] = test: Antimicrobial activity against Klebsiella pneumoniae NCTC 418 incubated for 16 to 20 hrs in 12.5 % muller hinton medium by broth microdilution method; format: functional; details: time 16-20 hrs
Pseudomonas aeruginosa [5] = test: Antibacterial activity against multidrug-resistant Pseudomonas aeruginosa PA14 incubated for 16 to 20 hrs in full muller hinton medium by broth microdilution method; format: functional; details: time 16-20 hrs
Pseudomonas aeruginosa [6] = test: Antibacterial activity against multidrug-resistant Pseudomonas aeruginosa PA14 4.13 harboring phoQ mutant incubated for 16 to 20 hrs in full muller hinton medium by broth microdilution method; format: functional; details: time 16-20 hrs
Pseudomonas aeruginosa [7] = test: Antibacterial activity against multidrug-resistant Pseudomonas aeruginosa PA14 4.18 harboring pmrB mutant incubated for 16 to 20 hrs in full muller hinton medium by broth microdilution method; format: functional; details: time 16-20 hrs
Pseudomonas aeruginosa [8] = test: Antibacterial activity against multidrug-resistant Pseudomonas aeruginosa PA14 2P4 harboring pmrB mutant incubated for 16 to 20 hrs in full muller hinton medium by broth microdilution method; format: functional; details: time 16-20 hrs
Pseudomonas aeruginosa [9] = test: Antibacterial activity against multidrug-resistant Pseudomonas aeruginosa clinical isolate ZEM-1A incubated for 16 to 20 hrs in full muller hinton medium by broth microdilution method; format: functional; details: time 16-20 hrs
Pseudomonas aeruginosa [10] = test: Antibacterial activity against multidrug-resistant Pseudomonas aeruginosa clinical isolate ZEM9A incubated for 16 to 20 hrs in full muller hinton medium by broth microdilution method; format: functional; details: time 16-20 hrs
Klebsiella pneumoniae [11] = test: Antibacterial activity against multidrug-resistant Klebsiella pneumoniae clinical isolate OXA-48 incubated for 16 to 20 hrs in full muller hinton medium by broth microdilution method; format: functional; details: time 16-20 hrs
Klebsiella pneumoniae [12] = test: Antibacterial activity against multidrug-resistant Klebsiella pneumoniae clinical isolate OXA-48 incubated for 16 to 20 hrs in 12.5 % muller hinton medium by broth microdilution method; format: functional; details: time 16-20 hrs
Enterobacter cloacae [13] = test: Antibacterial activity against multidrug-resistant Enterobacter cloacae incubated for 16 to 20 hrs in full muller hinton medium by broth microdilution method; format: functional; details: time 16-20 hrs
Escherichia coli [14] = test: Antimicrobial activity against Escherichia coli W3110 incubated for 16 to 20 hrs in full muller hinton medium by broth microdilution method; format: functional; details: time 16-20 hrs
Pseudomonas aeruginosa [15] = test: Antimicrobial activity against Pseudomonas aeruginosa PAO1 incubated for 16 to 20 hrs in 12.5 % muller hinton medium by broth microdilution method; format: functional; details: time 16-20 hrs
Staphylococcus aureus [16] = test: Antimicrobial activity against methicillin-resistant Staphylococcus aureus COL incubated for 16 to 20 hrs in 12.5 % muller hinton medium by broth microdilution method; format: functional; details: time 16-20 hrs
[17] = Hemolytic activity in human RBC incubated for 4 hrs; format: toxicity, cell-based; details: erythrocyte
rRNA = test: Binding affinity to [gamma32 P-ATP] labeled Escherichia coli MG1655 23S ribosomal RNA (5-CCCTTGGGACCTACTTC-3') at U2506 position assessed as increase in band intensity at 1 uM incubated for 2.5 hrs in full muller hinton medium by CMCT based gel electrophoresis; format: nucleic-acid assay
Escherichia coli [18] = test: Bacteriostatic activity against Escherichia coli at 8 times MIC in full muller hinton medium by Time-kill assay; format: functional, organism-based
Klebsiella pneumoniae [19] = test: Bacteriostatic activity against Klebsiella pneumoniae at 8 times MIC in full muller hinton medium by Time-kill assay; format: functional, organism-based
Escherichia coli [20] = test: Bacteriostatic activity against Escherichia coli assessed as detachment of inner membrane from outer membrane by measuring a large void at 8 times MIC in full muller hinton medium by transmission electron microscopic analysis; format: functional, organism-based
Klebsiella pneumoniae [21] = test: Bacteriostatic activity against Klebsiella pneumoniae assessed as detachment of inner membrane from outer membrane by measuring a large void at 8 times MIC in full muller hinton medium by transmission electron microscopic analysis; format: functional, organism-based
Escherichia coli [22] = test: Bacteriostatic activity against Escherichia coli assessed as small intracellular vesicles at 8 times MIC in full muller hinton medium by transmission electron microscopic analysis; format: functional, organism-based
Klebsiella pneumoniae [23] = test: Bacteriostatic activity against Klebsiella pneumoniae assessed as small intracellular vesicles at 8 times MIC in full muller hinton medium by transmission electron microscopic analysis; format: functional, organism-based
Escherichia coli [24] = test: Bacteriostatic activity against Escherichia coli assessed as membrane perturbation at 8 times MIC in full muller hinton medium by transmission electron microscopic analysis; format: functional, organism-based
Klebsiella pneumoniae [25] = test: Bacteriostatic activity against Klebsiella pneumoniae assessed as membrane perturbation at 8 times MIC in full muller hinton medium by transmission electron microscopic analysis; format: functional, organism-based
Enterobacter cloacae [26] = test: Antibacterial activity against multidrug-resistant Enterobacter cloacae incubated for 16 to 20 hrs in 12.5 % muller hinton medium by broth microdilution method; format: functional; details: time 16-20 hrs
Lipid bilayer [27] = test: Induction of membrane disruption in egg yolk phosphatidyl glycerol at 10 ug/ml by measuring vesicle leakage; details: dose 10.0 µg/ml
Lipid bilayer [28] = test: Induction of membrane disruption in egg yolk phosphatidyl choline at 10 ug/ml by measuring vesicle leakage; details: dose 10.0 µg/ml

| SMILES | MIC (Staphylococcus aureus [2]) [µg/mL] | MIC (Pseudomonas aeruginosa [5]) [µg/mL] | MIC (Pseudomonas aeruginosa [8]) [µg/mL] | MIC (Pseudomonas aeruginosa [10]) [µg/mL] | MIC (Enterobacter cloacae [13]) [µg/mL] | MIC (Staphylococcus aureus [16]) [µg/mL] | MHC [17] [µg/mL] | Activity (rRNA) | Activity (Escherichia coli [18]) | Activity (Klebsiella pneumoniae [19]) | Activity (Escherichia coli [20]) | Activity (Klebsiella pneumoniae [21]) | Activity (Escherichia coli [22]) | Activity (Klebsiella pneumoniae [23]) | Activity (Escherichia coli [24]) | Activity (Klebsiella pneumoniae [25]) | MIC (Enterobacter cloacae [26]) [µg/mL] | Activity (Lipid bilayer [27]) | Activity (Lipid bilayer [28]) | also measured |
| --- | --- | --- | --- | --- | --- | --- | --- | --- | --- | --- | --- | --- | --- | --- | --- | --- | --- | --- | --- | --- |
| CC(C)C[C@H](NC(=O)CN(CC(C)C)C(=O)[C@H](CC(C)C)NC(=O)CN(CCCCN)C(=O)[C@H](CC(C)C)NC(=O)CN(CC(C)C)C(=O)[C@H](CCCCN)NC(=O)CN(CC(C)C)C(=O)[C@H](CC(C)C)NC(=O)CN(CCCCN)C(=O)[C@@H](N)CCCCN)C(N)=O (H-K[Nlys]L[Nleu]K[Nleu]L[Nlys]L[Nleu]L-NH2) | > 32 | > 32 | > 64 | > 64 | 64 (≈ 48.4 µM) | – | – | – | – | – | – | – | – | – | – | – | – | – | – | MIC (Klebsiella pneumoniae [1]): > 32 µg/mL; MIC (Acinetobacter baumannii): > 32 µg/mL; MIC (Escherichia coli [3]): 2 µg/mL (≈ 1.51 µM); MIC (Klebsiella pneumoniae [4]): > 32 µg/mL; MIC (Pseudomonas aeruginosa [6]): > 32 µg/mL; MIC (Pseudomonas aeruginosa [7]): > 32 µg/mL; MIC (Pseudomonas aeruginosa [9]): > 64 µg/mL; MIC (Klebsiella pneumoniae [11]): > 64 µg/mL; MIC (Klebsiella pneumoniae [12]): 64 µg/mL (≈ 48.4 µM) |
| CCC(C)C(NC(=O)C(CCCNC(=N)N)NC(=O)[C@H](CCCNC(=N)N)NC(=O)[C@@H]1CCCN1C(=O)[C@@H]1CCCN1C(=O)[C@H](CCCNC(=N)N)NC(=O)[C@@H]1CCCN1C(=O)[C@H](CCCNC(=N)N)NC(=O)[C@@H]1CCCN1C(=O)[C@H](CC(C)C)NC(=O)[C@H](Cc1ccc(O)cc1)NC(=O)[C@@H]1CCCN1C(=O)[C@@H]1CCCN1C(=O)[C@H](CCCCN)NC(=O)[C@H](CC(=O)O)NC(=O)[C@@H](N)C(C)C)C(=O)NC(Cc1ccc(O)cc1)C(=O)NC(CC(N)=O)C(=O)NC(CCCNC(=N)N)C(N)=O (stereo partly drawn) (H-VDKPPYLPRPRPPR[ξR][ξI][ξY][ξN][ξR]-NH2) | > 64 | > 64 | > 64 | > 64 | – | > 16 | > 1000 | Active | Active | Active | Active | Active | Active | Active | Active; Few Membrane Perturbation Observed | Active; Few Membrane Perturbation Observed | 1 (≈ 0.418 µM) | Active | Active | MIC (Escherichia coli [14]): 4 µg/mL (≈ 1.67 µM); MIC (Pseudomonas aeruginosa [15]): 8 µg/mL (≈ 3.35 µM) |
| CCC(C)C(NC(=O)C(CCCNC(=N)N)NC(=O)C(CCCNC(=N)N)NC(=O)C1CCCN1C(=O)C1CCCN1C(=O)[C@H](CCCNC(=N)N)NC(=O)[C@@H]1CCCN1C(=O)[C@H](CCCNC(=N)N)NC(=O)[C@@H]1CCCN1C(=O)[C@H](CC(C)C)NC(=O)[C@H](Cc1ccc(O)cc1)NC(=O)[C@@H]1CCCN1C(=O)[C@@H]1CCCN1C(=O)[C@H](CCCCN)NC(=O)[C@H](CC(=O)O)NC(=O)[C@@H](N)C(C)C)C(=O)NC(Cc1ccc(O)cc1)C(=O)NC(CC(N)=O)C(=O)NC(CCCNC(=N)N)C(N)=O (stereo partly drawn) (H-VDKPPYLPRPR[ξP][ξP][ξR][ξR][ξI][ξY][ξN][ξR]-NH2) | > 64 | > 64 | > 64 | > 64 | > 64 | > 16 | > 1000 | Active | Active | Active | Active | Active | Active | Active | Active; Few Membrane Perturbation Observed | Active; Few Membrane Perturbation Observed | 0.5 (≈ 0.209 µM) | Active | Active | – |
